Experimental data from PMC4556830, “The Effect of MGCD0103 on CYP450 Isoforms Activity of Rats by Cocktail Method” (BioMed Research International, 2015).

What was measured:
CYP2C11 = test: Cocktail method, tolbutamide probe: effect of MGCD0103 on CYP2C11 activity; format: in vivo, rat
Description: (§1) Forty rats (220 ± 20 g) were randomly divided into four different dosages of MGCD0103 groups (Low group, Medium group, High group, and control group with 10 rats in each group). MGCD0103 was dissolved in corn oil as suspension at three different concentrations (20, 40, and 80 mg/mL). Three different MGCD0103 groups (Low group, Medium group, and High group) were respectively given MGCD0103 20, 40, and 80 mg/kg one time by intragastric administration at every morning and last for 7 days. Control group were given saline by same administration method.
(§2) Blood (0.3 mL) samples were collected into heparinized 1.5 mL polythene tubes from the tail vein at 0.0833, 0.5, 1, 2, 3, 4, 6, 8, 12, 24, and 48 h after intragastric administration of six probe drugs. 100 μL of plasma was obtained from blood sample after centrifugation at 4000 g for 10 min. In a 1.5 mL centrifuge tube, 200 μL of acetonitrile (containing 50 ng/mL IS) was added into 100 μL of collected plasma sample. After vortex-mixing for 1.0 min, the sample was centrifuged at 13000 g for 15 min. Then supernatant (2 μL) was injected into the UPLC-MS/MS system for analysis.
(§3) Concentration of plasma probe drugs versus time was analyzed by Version 3.0 Data Analysis System (Wenzhou Medical University, China). The main pharmacokinetic parameters of the MGCD0103 group and control group were analyzed by SPSS l8.0 statistical software.

CYP1A2 = target: T1, CYP1A2 (Rattus norvegicus, UniProt P04799); test: Cocktail method, phenacetin probe: effect of MGCD0103 on CYP1A2 activity; format: in vivo; settings: 7-day intragastric MGCD0103 20, 40, 80 mg/kg
T1 construct: we investigated the effects of 7-day intragastric administration of MGCD0103 on the activity of CYP enzymes in vivo; from tissue; host or cells: living rats (in vivo)
T1 sequence (P04799 1-513): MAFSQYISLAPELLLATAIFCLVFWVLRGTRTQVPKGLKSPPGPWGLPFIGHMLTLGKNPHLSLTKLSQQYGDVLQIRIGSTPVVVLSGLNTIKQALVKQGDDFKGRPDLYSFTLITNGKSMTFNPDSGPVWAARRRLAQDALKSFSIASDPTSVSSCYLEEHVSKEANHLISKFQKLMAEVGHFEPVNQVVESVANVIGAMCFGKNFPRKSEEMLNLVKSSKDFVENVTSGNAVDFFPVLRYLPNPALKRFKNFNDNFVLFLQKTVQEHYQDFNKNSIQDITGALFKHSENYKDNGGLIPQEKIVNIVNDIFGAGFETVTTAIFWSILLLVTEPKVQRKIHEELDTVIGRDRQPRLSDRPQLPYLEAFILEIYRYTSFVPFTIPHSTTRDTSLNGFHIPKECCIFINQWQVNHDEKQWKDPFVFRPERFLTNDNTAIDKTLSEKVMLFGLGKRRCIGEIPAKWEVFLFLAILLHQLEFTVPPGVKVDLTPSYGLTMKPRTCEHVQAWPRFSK
Description: as §1, §2, §3

CYP2B1 = target: T2, CYP2B1 (Rattus norvegicus, UniProt P00176); test: Cocktail method, bupropion probe: effect of MGCD0103 on CYP2B1 activity; format: in vivo; settings: 7-day intragastric MGCD0103 20, 40, 80 mg/kg
T2 construct: we investigated the effects of 7-day intragastric administration of MGCD0103 on the activity of CYP enzymes in vivo; from tissue; host or cells: living rats (in vivo)
T2 sequence (P00176 1-491): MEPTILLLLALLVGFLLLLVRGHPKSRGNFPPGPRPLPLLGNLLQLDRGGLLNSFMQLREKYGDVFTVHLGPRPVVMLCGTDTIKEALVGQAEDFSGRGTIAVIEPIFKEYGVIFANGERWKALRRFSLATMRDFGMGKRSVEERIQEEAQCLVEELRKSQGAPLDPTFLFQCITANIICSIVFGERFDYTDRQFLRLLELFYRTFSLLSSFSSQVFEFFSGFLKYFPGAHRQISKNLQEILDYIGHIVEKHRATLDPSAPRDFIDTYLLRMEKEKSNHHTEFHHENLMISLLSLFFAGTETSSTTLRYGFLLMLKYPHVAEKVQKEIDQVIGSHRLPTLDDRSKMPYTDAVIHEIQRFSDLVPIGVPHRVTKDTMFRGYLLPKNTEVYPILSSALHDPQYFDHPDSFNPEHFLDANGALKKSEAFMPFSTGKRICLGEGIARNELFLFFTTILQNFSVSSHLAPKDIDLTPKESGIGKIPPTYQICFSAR
Description: as §1, §2, §3

CYP2D4 = target: T3, CYP2D4 (Rattus norvegicus, UniProt Q64680); test: Cocktail method, metoprolol probe: effect of MGCD0103 on CYP2D4 activity; format: in vivo; settings: 7-day intragastric MGCD0103 20, 40, 80 mg/kg
T3 construct: we investigated the effects of 7-day intragastric administration of MGCD0103 on the activity of CYP enzymes in vivo; from tissue; host or cells: living rats (in vivo)
T3 sequence (Q64680 1-500): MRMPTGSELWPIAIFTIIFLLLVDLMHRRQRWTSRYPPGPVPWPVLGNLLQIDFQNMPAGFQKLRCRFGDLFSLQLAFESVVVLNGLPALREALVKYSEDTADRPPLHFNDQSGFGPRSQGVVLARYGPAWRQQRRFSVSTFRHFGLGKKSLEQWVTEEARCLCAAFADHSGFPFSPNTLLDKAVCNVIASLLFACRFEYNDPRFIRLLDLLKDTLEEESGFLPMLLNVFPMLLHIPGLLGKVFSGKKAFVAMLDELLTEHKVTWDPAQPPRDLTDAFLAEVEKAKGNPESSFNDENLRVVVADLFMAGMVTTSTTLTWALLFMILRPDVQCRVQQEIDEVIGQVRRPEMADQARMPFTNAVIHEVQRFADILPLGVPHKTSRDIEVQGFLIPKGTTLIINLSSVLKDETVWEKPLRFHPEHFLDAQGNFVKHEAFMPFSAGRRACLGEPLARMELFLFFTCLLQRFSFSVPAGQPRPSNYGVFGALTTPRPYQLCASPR
Description: as §1, §2, §3

CYP3A2 = target: T4, CYP3A2 (Rattus norvegicus, UniProt P05183); test: Cocktail method, testosterone probe: effect of MGCD0103 on CYP3A2 activity; format: in vivo; settings: 7-day intragastric MGCD0103 20, 40, 80 mg/kg
T4 construct: we investigated the effects of 7-day intragastric administration of MGCD0103 on the activity of CYP enzymes in vivo; from tissue; host or cells: living rats (in vivo)
T4 sequence (P05183 1-504): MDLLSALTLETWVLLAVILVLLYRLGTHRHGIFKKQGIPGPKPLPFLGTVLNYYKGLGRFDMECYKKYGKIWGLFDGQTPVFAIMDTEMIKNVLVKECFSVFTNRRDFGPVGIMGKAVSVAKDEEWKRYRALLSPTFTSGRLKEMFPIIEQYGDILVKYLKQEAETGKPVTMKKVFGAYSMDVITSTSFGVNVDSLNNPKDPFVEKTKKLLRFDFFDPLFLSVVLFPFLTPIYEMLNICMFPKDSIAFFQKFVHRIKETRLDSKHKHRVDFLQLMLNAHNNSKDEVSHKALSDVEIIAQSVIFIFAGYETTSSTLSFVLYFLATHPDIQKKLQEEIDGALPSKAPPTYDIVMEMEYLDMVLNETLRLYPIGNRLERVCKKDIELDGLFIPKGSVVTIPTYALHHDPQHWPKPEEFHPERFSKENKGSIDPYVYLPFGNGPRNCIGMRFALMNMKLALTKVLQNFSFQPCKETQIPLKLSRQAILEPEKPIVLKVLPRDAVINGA
Description: as §1, §2, §3

liver = test: Liver histopathology (HE staining) after MGCD0103; format: in vivo, rat
Description: After pharmacokinetic properties analysis, rats were deeply anesthetized with 10% chloral hydrate (i.p., […]). The livers of control group and MGCD0103 treated groups were rapidly isolated and immersed in freshly prepared 4% w/v formaldehyde (0.1 M phosphate buffer, pH 7.2) for 48 h and then embedded in paraffin. Then 5 μm thick histologic sections were prepared and stained with routine HE method (hematoxylin and eosin). The morphological changes of liver were observed under light microscope.

With `Nc1ccccc1NC(=O)c1ccc(CNc2nccc(-c3cccnc3)n2)cc1` [MGCD0103, Mocetinostat] the “effect on metabolism of tolbutamide” value (CYP2C11; 7-day intragastric administration of MGCD0103, high dosage (80 mg/kg), rat) was “slightly induces”, the “effect on activities of CYP2C11” value (CYP2C11; continuous 7-day intragastric administration of MGCD0103, rats) was “slightly induces” and the “effect on activity of CYP1A2 enzyme” value (CYP1A2) was “not able to induce or inhibit”. The “effect on activity of CYP2B1 enzyme” value (CYP2B1) was “not able to induce or inhibit”, the “effect on activity of CYP2D4 enzyme” value (CYP2D4) was “not able to induce or inhibit” and the “effect on activity of CYP3A2 enzyme” value (CYP3A2) was “not able to induce or inhibit”. For the same compound, the “hepatotoxicity (pathological changes of liver)” value (liver; 20, 40, 80 mg/kg i.g. 7 days, probe drugs also given) was “hepatotoxic and its toxicity is dose-dependent”, the “morphological changes of liver” value (liver; high dose group, 80 mg/kg i.g. 7 days) was “liver cells with steatosis and small, atrophy, hyperchromatic karyopyknosis” and the “morphological changes of liver” value (liver; low dose group, 20 mg/kg i.g. 7 days) was “liver cells become slightly edematous”. The “morphological changes of liver” value (liver; middle dose group, 40 mg/kg i.g. 7 days) was “liver cells experienced extensive fatty changes”.
